SMILES strings stand for the structures.

Experiment [1] has as its target T1, PccGCS (Pectobacterium carotovorum, UniProt C6D9C2).
T1 construct: gene PC1_2619; full-length PccGCS WT (His-tagged)
Kind of experiment: EnzChek pyrophosphate diguanylate cyclase turnover assay with purified protein, […] GTP. Format: biochemical.

Experiment [2] has as its target T2, PccGCS (Pectobacterium carotovorum, UniProt C6D9C2, H237A/K238A).
T2 construct: gene PC1_2619; full-length PccGCS H237A/K238A (His-tagged)
T2 sequence (C6D9C2 1-471 H237A/K238A): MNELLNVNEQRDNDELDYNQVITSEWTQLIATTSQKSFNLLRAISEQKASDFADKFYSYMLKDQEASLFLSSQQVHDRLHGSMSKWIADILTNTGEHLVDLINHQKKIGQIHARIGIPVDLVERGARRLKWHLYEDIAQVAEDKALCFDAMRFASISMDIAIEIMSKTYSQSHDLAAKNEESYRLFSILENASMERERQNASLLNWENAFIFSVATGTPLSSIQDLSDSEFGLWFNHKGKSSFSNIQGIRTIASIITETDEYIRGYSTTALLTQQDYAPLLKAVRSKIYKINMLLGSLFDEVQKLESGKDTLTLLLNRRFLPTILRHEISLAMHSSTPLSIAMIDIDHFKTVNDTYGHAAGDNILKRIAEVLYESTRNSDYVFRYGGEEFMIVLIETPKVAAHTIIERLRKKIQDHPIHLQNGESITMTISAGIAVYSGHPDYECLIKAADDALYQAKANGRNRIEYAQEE
Described as above. Format: biochemical.

Take `Nc1nc2c(ncn2[C@@H]2O[C@H](COP(=O)(O)OP(=O)(O)OP(=O)(O)O)[C@@H](O)[C@H]2O)c(=O)[nH]1` [GTP]: the “EnzChek pyrophosphate diguanylate cyclase turnover assay with purified protein,” value on PccGCS [1] turned out to be 0.759 min⁻¹; on PccGCS [2], 0.0227 min⁻¹.
